According to patent US12065654B2, “Plants having increased tolerance to herbicides” (BASF SE, priority 2014, dated 2024):

What was measured:
[1] = tested on: Arabidopsis overexpression line Arabidopsis HPPD; experiment: Germination assay in 48-well plates; type: in vivo, Arabidopsis thaliana; conditions: plant growth IC50 transgenic / wildtype, mean of 5 T2 events
Protocol: (§1) Depending on the species, the plants are kept at 10-25° C. or 20-35° C. The test period extends over 3 weeks. During this time, the plants are tended and their response to the individual treatments is evaluated. Herbicide injury evaluations are taken at 2 and 3 weeks after treatment. Plant injury is rated on a scale of 0 to 9, 0 being no injury and 9 being complete death. Tolerance to HPPD-inhibiting, preferably pyrazolone, isoxazole, or triketone derivative herbicides can also be assessed in Arabidopsis. In this case transgenic Arabidopsis thaliana plants are assayed for improved tolerance to HPPD-inhibiting, preferably pyrazolone, isoxazole, or triketone derivative herbicides in 48-well plates. Seeds are surface sterilized by stirring for 5 min in ethanol+water (70+30 by volume), rinsing one time with ethanol+water (70+30 by volume) and two times with a sterile, deionized water. The seeds are resuspended in 0.1% agar dissolved in water (w/v). Four to five seeds per well are plated on solid nutrient medium consisting of half-strength Murashige Skoog nutrient solution, pH 5.8 (Murashige and Skoog (1962) Physiologia Plantarum 15: 473-497). Compounds are dissolved in dimethylsulfoxid (DMSO) and added to the medium prior solidification (final DMSO concentration 0.1%). Multi well plates are incubated in a growth chamber at 22° C., 75% relative humidity and 110 μmol Phot*m−2*s−1 with 14:10 h light:dark photoperiod. Seven to ten days after seeding growth inhibition is evaluated by comparison to wild type plants. Tolerance factor is calculated by dividing the plant growth IC50 value of transgenic plants containing a HPPD and/or HST sequence by that of wildtype plants.

[2] = tested on: Arabidopsis overexpression line Synechocystis HPPD; experiment: Germination assay in 48-well plates; type: in vivo, Arabidopsis thaliana; conditions: IC50 transgenic / wildtype, mean of 5 T2 events
Protocol: as §1

[3] = tested on: Arabidopsis wild-type control; experiment: Germination assay in 48-well plates; type: in vivo, Arabidopsis thaliana; conditions: plant growth IC50 ratio to wildtype, mean of 5 T2 events
Protocol: as §1

[4] = tested on: transgenic soybean plants AtHPPD I393L L385V, event SDS-9908; experiment: Greenhouse testing of soybean plants; type: in vivo, Glycine max; conditions: soybean AtHPPD I393L L385V SDS-9908, 14 days, average of 8 T1 individuals
Protocol: (§2) Transgenic plants expressing heterologous HPPD or HST enzymes are tested for tolerance against HPPD-inhibiting, preferably pyrazolone, isoxazole, or triketone derivative herbicides in greenhouse experiments.
(§3) For post emergence treatment, the test plants are first grown to a height of 3 to 15 cm, depending on the plant habit, and only then treated with the herbicides. For this purpose, the test plants are either sown directly and grown in the same containers, or they are first grown separately and transplanted into the test containers a few days prior to treatment.
(§4) For testing of T0 plants, cuttings can be used. In the case of soybean plants, an optimal shoot for cutting is about 7.5 to 10 cm tall, with at least two nodes present. Each cutting is taken from the original transformant (mother plant) and dipped into rooting hormone powder (indole-3-butyric acid, IBA). The cutting is then placed in oasis wedges inside a bio-dome. Wild type cuttings are also taken simultaneously to serve as controls. The cuttings are kept in the bio-dome for 5-7 days and then transplanted to pots and then acclimated in the growth chamber for two more days. Subsequently, the cuttings are transferred to the greenhouse, acclimated for approximately 4 days, and then subjected to spray tests as indicated.
as §1
(§5) Transgenic soy plants were sprayed with a range of doses from 6.25-100 g/ha with an HPPD-inhibiting herbicide and injury evaluations were taken two weeks after treatment. […] Compared to the untransformed wild-type, plants comprising polynucleotides encoding for Arabidopsis HPPD wild-type or mutated versions thereof were less susceptible to Inhibitor 1.

[5] = tested on: transgenic soybean plants AtHPPD M335Y, event SDS-9866; experiment: Greenhouse testing of soybean plants; type: in vivo, Glycine max; conditions: soybean AtHPPD M335Y SDS-9866, 14 days, average of 8 T1 individuals
Protocol: as §2, §3, §4, §1, §5

[6] = tested on: transgenic soybean plants AtHPPD P336A E363Q I393L L385V, event SDS-10085; experiment: Greenhouse testing of soybean plants; type: in vivo, Glycine max; conditions: soybean AtHPPD P336A E363Q I393L L385V SDS-10085, 14 days, average of 8 T1 individuals
Protocol: as §2, §3, §4, §1, §5

[7] = tested on: transgenic soybean plants AtHPPD Q293S, event SDS-9928; experiment: Greenhouse testing of soybean plants; type: in vivo, Glycine max; conditions: soybean AtHPPD Q293S SDS-9928, 14 days, average of 8 T1 individuals
Protocol: as §2, §3, §4, §1, §5

[8] = tested on: transgenic soybean plants AtHPPD, event SDS-10248; experiment: Greenhouse testing of soybean plants; type: in vivo, Glycine max; conditions: for Injury evaluation (bleaching phenotype, scale of 1-100): soybean AtHPPD SDS-10248, 14 days, average of 8 T1 individuals
Protocol: as §2, §3, §4, §1, §5

Compound	Tolerance factor [1]	Tolerance factor [2]	Tolerance factor [3]	Injury evaluation (bleaching phenotype, scale of 1-100) ([4]; 6.25 g/ha)	Injury evaluation (bleaching phenotype, scale of 1-100) ([4]; 25 g/ha)	Injury evaluation (bleaching phenotype, scale of 1-100) ([4]; 100 g/ha)	Injury evaluation (bleaching phenotype, scale of 1-100) ([5]; 6.25 g/ha)	Injury evaluation (bleaching phenotype, scale of 1-100) ([5]; 25 g/ha)	Injury evaluation (bleaching phenotype, scale of 1-100) ([5]; 100 g/ha)	Injury evaluation (bleaching phenotype, scale of 1-100) ([6]; 6.25 g/ha)	Injury evaluation (bleaching phenotype, scale of 1-100) ([6]; 25 g/ha)	Injury evaluation (bleaching phenotype, scale of 1-100) ([6]; 100 g/ha)	Injury evaluation (bleaching phenotype, scale of 1-100) ([7]; 6.25 g/ha)	Injury evaluation (bleaching phenotype, scale of 1-100) ([7]; 25 g/ha)	Injury evaluation (bleaching phenotype, scale of 1-100) ([7]; 100 g/ha)	fold tolerance compared to untransformed wild-type ([8]; soy plants with SEQ ID NO:53, 100 g/ha)	Injury evaluation (bleaching phenotype, scale of 1-100) ([8]; 6.25 g/ha)	Injury evaluation (bleaching phenotype, scale of 1-100) ([8]; 25 g/ha)	Injury evaluation (bleaching phenotype, scale of 1-100) ([8]; 100 g/ha)
Cc1c(C(=O)c2cnn(C)c2O)ccc(S(C)(=O)=O)c1C1=NOCC1 [Inhibitor 1, [3-(4,5-dihydroisoxazol-3-yl)-2-methyl-4-methylsulfonyl-phenyl]-(5-hydroxy-1-methyl-pyrazol-4-yl)methanone]	9	7.5	1	0%	8%	54%	0%	11%	31%	16%	35%	78%	2%	40%	79%	2 fold	2%	3%	44%
CS(=O)(=O)c1ccc(C(=O)C2C(=O)CCCC2=O)c([N+](=O)[O-])c1 [Inhibitor 2, 2-(4-methylsulfonyl-2-nitro-benzoyl)cyclohexane-1,3-dione]	10	10	1	–	–	–	–	–	–	–	–	–	–	–	–	–	–	–	–
